The subject of data set [1] is Aβ42 levels. Put plainly: Effects of 7 days treatment on mouse plasma and brain Aβ42 levels. The note with it: for percent reduction of Aβ42 levels in brain: mouse brain; for percent reduction of Aβ42 levels in plasma: mouse plasma. It counts as in vivo, male C57BL/6J mouse. As to the method:
FIG. 2: The effects of Compound 1 after 7-days treatment on Aβ42 levels in male C57BL/6J mouse plasma A) (plasma) where the percent reduction was 76%, 91% and 96% for dosages of 10, 25, and 50 mg/kg, respectively and in male C57BL/6J mouse brain B) where the percent reduction was 36%, 69% and 85% for dosages of 10, 25, and 50 mg/kg, respectively.
Effects of Compound 1 (7 Days Treatment) on Mouse Plasma and Brain Aβ42 Levels. The effects of Compound 1 after 7-days treatment on Aβ42 levels in mouse plasma and brain are depicted in FIG. 2A (plasma) and FIG. 2B (brain). For FIG. 2A, the percent reduction was 76%, 91% and 96% for dosages of 10, 25, and 50 mg/kg, respectively. For FIG. 2B, the percent reduction was 36%, 69% and 85% for dosages of 10, 25, and 50 mg/kg, respectively.

The nature of data set [2]: Plasma concentrations (pharmacokinetics) in male Sprague Dawley rats, iv and po. It counts as in vivo. The following applies: rat. Here is the method: FIG. 4. Time course of administration of Compound 1 to male Sprague Dawley rats: iv (1 mg/kg) or po (5 mg/kg). […] Clearance was 89 mL/hr/kg. T1/2 (iv) was 5.9 hrs.
Efficacy Studies in Rat. Plasma Concentrations of Compound 1 in Male Sprague Dawley Rats. FIG. 4 depicts the time course of administration of Compound 1 to male Sprague Dawley rats: iv (1 mg/kg) or [p (5 mg/kg). […] Clearance was 89 mL/hr/kg. T1/2 (iv) was 5.9 hrs.

Data set [3] has as its system Aβ42 levels. Kind of data set: Effects of 9 days treatment on rat plasma and CSF Aβ42 levels. It counts as in vivo, male Sprague-Dawley rat. The following applies: for reduction in CSF Aβ42 levels: rat CSF; for reduction in plasma Aβ42 levels: rat plasma. As to the method:
FIG. 5: The effects of Compound 1 after 9-days treatment on Aβ42 levels in male Sprague-Dawley rat plasma A) where the reduction in plasma levels was 81%, 93% and 97%, for dosages of 5, 25, and 50 mg/kg, respectively and male Sprague-Dawley rat CSF B) where the reduction in CSF levels was 43%, 73% and 86%, for dosages of 5, 25, and 50 mg/kg, respectively.
Effects of Compound 1 (9 Days Treatment) on Rat Plasma and CSF Aβ42 Levels. The effects of Compound 1 after 9-days treatment on Aβ42 levels in rat plasma and CSF are depicted in FIG. 5A (plasma) and FIG. 5B (CSF). For FIG. 5A, the reduction in plasma levels was 81%, 93% and 97%, for dosages of 5, 25, and 50 mg/kg, respectively. For FIG. 5B, the reduction in CSF levels was 43%, 73% and 86%, for dosages of 5, 25, and 50 mg/kg, respectively.

The subject of the next data set is Aβ40 levels. Kind of data set: Effects of 9 days treatment on rat plasma and CSF Aβ40 levels. Type of data set: in vivo, male Sprague-Dawley rat. The note with it: for reduction in CSF Aβ40 levels: rat CSF; for reduction in plasma Aβ40 levels: rat plasma. Here is the method:
FIG. 6: The effects of Compound 1 after 9-days treatment on Aβ40 levels in male Sprague-Dawley rat plasma A) where the reduction in plasma levels was 61%, 89% and 95%, for dosages of 5, 25, and 50 mg/kg, respectively and in male Sprague-Dawley rat CSF B) where the reduction in CSF levels was 47%, 75% and 85%, for dosages of 5, 25, and 50 mg/kg, respectively.
Effects of Compound 1 (9 Days Treatment) on Rat Plasma and CSF Aβ40 Levels. The effects of Compound 1 after 9-days treatment on Aβ40 levels in rat plasma and CSF are depicted in FIG. 6A (plasma) and FIG. 6B (CSF). For FIG. 6A, the reduction in plasma levels was 61%, 89% and 95%, for dosages of 5, 25, and 50 mg/kg, respectively. For FIG. 6B, the reduction in CSF levels was 47%, 75% and 85%, for dosages of 5, 25, and 50 mg/kg, respectively.

The next data set concerns total Aβ peptides. Put plainly: Levels of total Aβ peptides, SHSYSY-APP cell-based assay (sandwich ELISA). The note with it: concentration response, percent solvent control. The source says:
FIG. 8: Representative concentration response curves of Compound 1 using our primary and orthogonal medium throughput SHSYSY-APP cell-based screening assays (10). Compounds are first screened two times in triplicate in our UCSD sandwich Aβ42 ELISA on sequential days and the average of the two assays must be within 3-fold of each other before being entered into the CDD relational database. The UCSD sandwich ELISA assay can easily handle 20 compounds per week. Compounds with Aβ42 IC50 values <100 nM continue through the testing funnel. The Z′ score and the % CV for the UCSD Aβ42 sandwich ELISA assay are 0.8 and 4, respectively. For the Meso Scale triplex assay the Z′ scores are 0.7, 0.9 and 0.6 Aβ42, Aβ40 and Aβ38, respectively and the % CV's are 7, 2 and 1 for Aβ42, Aβ40 and Aβ38, respectively. Aβ total peptides are measured using a sandwich ELISA.
The figure depicts percent solvent control (Aβ40/Aβ42/AβTotal) (left axis) and percent solvent control (Aβ38) again log of, concentration of Compound 1.
For orientation: An ELISA detects its analyte on a solid surface through an enzyme-linked reagent.

The next data set concerns Notch processing. Kind of data set: Notch processing in transfected H4-APP751 cells (Western blot, Myc antibody, NICD). It counts as cell-based, human. The following applies: H4-APP751 cells transfected with the NAE construct, different concentrations, 24 hrs. The source says:
Cells were harvested 48 hrs post transfection and applied to Western blotting analysis. Myc antibody was utilized to assess the NAED and NICD tagged with Myc on their N-termini. β-Actin was utilized as the loading control.
Cells were harvested 48 hrs post transfection and subjected to Western blotting analysis. Myc antibody was utilized to assess the NδED and NICD tagged with Myc on their N-termini.
Stable H4 human neuroglioma cells over-expressing human APP751, or H4-APP751 cells, were transfected with the NAE construct, and then treated with different concentrations SGSM Compound 1 (Lanes 1-6) or DAPT (Lanes 7-10) for another 24 hrs and are shown in FIG. 9. Cells were harvested 48 hrs post transfection and applied to Western blotting analysis. Myc antibody was utilized to assess the NAED and NICD tagged with Myc on their N-termini β-Actin was utilized as the loading control.
Stably-transfected H4 human neuroglioma cells over-expressing human APP751 (H4-APP751) cells, were transfected with the Notch NδED construct, and then treated with vehicle, or different doses of GSMs (40 nM, 200 nM, 1000 nM, and 5000 nM) for 24 hrs. Cells were harvested 48 hrs post transfection and subjected to Western blotting analysis.
Background: In western blotting, separated proteins are transferred to a membrane and probed.

This note sets out measurements from patent publication US10472346B2, “Potent gamma-secretase modulators” (The General Hospital Coporation, priority 2014, dated 2019).

The bioavailability is the share of a dose that reaches the circulation, judged against a reference dose that is usually intravenous. High values mean good availability, low ones poor availability.

As to `COc1nc(-c2cc(C)c(N[C@@H](C)c3ccc(F)cc3)nn2)ccc1-n1cnc(C)c1` [Compound 1, (S)—N-(1-(4-fluorophenyl)ethyl)-6-(6-methoxy-5-(4-methyl-1H-imidazol-1-yl)pyridin-2-yl)-4-methylpyridazin-3-amine], the “percent reduction of Aβ42 levels in brain” value in the data set on Aβ42 levels [1] (10 mg/kg) was 36%; in the data set on Aβ42 levels [1] (25 mg/kg), 69%; in the data set on Aβ42 levels [1] (50 mg/kg), 85%. Moreover, the “percent reduction of Aβ42 levels in plasma” value was found to be 76% with Aβ42 levels [1] (10 mg/kg), 91% in the data set with Aβ42 levels [1] (25 mg/kg) and 96% in the data set with Aβ42 levels [1] (50 mg/kg). The bioavailability in data set [2] (iv (1 mg/kg) or po (5 mg/kg)) turned out to be 60.3%. For the same molecule, the clearance in data set [2] (iv (1 mg/kg) or po (5 mg/kg)) is 1.48 mL/min/kg. For the same molecule, in data set [2] (iv (1 mg/kg), read-out: T1/2 (iv) (converted)), the half-life is 5.9 h. Also, the “reduction in CSF Aβ42 levels” value is on record as 43% with Aβ42 levels [3] (5 mg/kg), 73% with Aβ42 levels [3] (25 mg/kg) and 86% in the data set with Aβ42 levels [3] (50 mg/kg). Besides, the “reduction in plasma Aβ42 levels” value in the data set on Aβ42 levels [3] (5 mg/kg) was 81%; in the data set on Aβ42 levels [3] (25 mg/kg), 93%; with Aβ42 levels [3] (50 mg/kg), 97%. Further, the “reduction in CSF Aβ40 levels” value in the data set with Aβ40 levels (5 mg/kg) stood at 47%; in the data set on Aβ40 levels (25 mg/kg), 75%; with Aβ40 levels (50 mg/kg), 85%. Further, the “reduction in plasma Aβ40 levels” value is 61% in the data set with Aβ40 levels (5 mg/kg), 89% in the data set with Aβ40 levels (25 mg/kg) and 95% with Aβ40 levels (50 mg/kg). Further, in the data set on total Aβ peptides, the “levels of total Aβ peptides” value is listed as “does not decrease levels of total Aβ peptides”. For the same molecule, the “Notch processing (NICD, Western blot)” value in the data set on Notch processing was “did not inhibit Notch processing”.
